Assay results taken from BindingDB's records for doi:10.1016/s0960-894x(98)00484-3 (National Chung-Hsing University, 1999).

How the values were obtained:
[1] = target: T1, Carboxylic ester hydrolase (Equus caballus, UniProt Q9N1N9); test: (§1) Tested for kinetic data for the horse serum Butyrylcholinesterase-Catalyzed Hydrolysis of Butyrylthiocholine; 10e-3/M. sec; conditions: read-out: kon (M-1-s-1)
[2] = target: T1, Carboxylic ester hydrolase; test: ChEBML_41403; conditions: read-out: kon (M-1-s-1); from the text: as §1

T1 sequence (Q9N1N9 whole entry): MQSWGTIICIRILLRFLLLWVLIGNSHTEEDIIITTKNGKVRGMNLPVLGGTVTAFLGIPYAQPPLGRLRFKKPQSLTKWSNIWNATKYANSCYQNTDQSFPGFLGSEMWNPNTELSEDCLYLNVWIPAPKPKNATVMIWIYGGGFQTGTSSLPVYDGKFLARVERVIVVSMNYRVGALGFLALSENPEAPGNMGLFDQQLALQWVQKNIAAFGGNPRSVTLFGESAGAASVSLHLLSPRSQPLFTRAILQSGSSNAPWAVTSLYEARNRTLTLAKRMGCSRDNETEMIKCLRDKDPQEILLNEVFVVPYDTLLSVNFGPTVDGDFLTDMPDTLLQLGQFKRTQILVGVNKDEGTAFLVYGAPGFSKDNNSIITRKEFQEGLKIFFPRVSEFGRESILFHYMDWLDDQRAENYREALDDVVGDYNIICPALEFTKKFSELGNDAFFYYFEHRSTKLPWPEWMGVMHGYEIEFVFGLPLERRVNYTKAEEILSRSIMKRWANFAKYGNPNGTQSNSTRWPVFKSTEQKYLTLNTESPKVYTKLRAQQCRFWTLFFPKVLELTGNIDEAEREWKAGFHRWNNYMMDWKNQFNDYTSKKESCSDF

| SMILES | kon [1] | kon [2] |
| --- | --- | --- |
| CCCCNC(=O)OC12CC3CC(CC(C3)C1)C2 [Butyl-carbamic acid adamantan-1-yl ester] | 1900 M⁻¹ s⁻¹ | – |
| CCCCNC(=O)OC1C[C@H]2CCC1C2 (stereo partly drawn) [Butyl-carbamic acid (S)-bicyclo[2.2.1]hept-2-yl ester] | 110000 M⁻¹ s⁻¹ | 2200 M⁻¹ s⁻¹ |
| CCCCNC(=O)OC1C2CC3CC(C2)CC1C3 (centres undefined) | 1800 M⁻¹ s⁻¹ | – |
